# Results published in PMC13183915, “A platinum butterfly effect: small changes turn an anticancer drug into a non-toxic metalloantibiotic with in vivo efficacy” (npj Antimicrobials and Resistance, 2026).
# “And” between values parts separate entries of the source, which are not always exact repeats. Equal values may be shown once.
# Legend:
# λ-phage DNA = assay: Single-molecule imaging of YOYO-1-labeled λ-DNA, DNA length analysis; assay type: biochemical
# MRSA NRS 186 = assay: Broth microdilution MIC, MRSA NRS 186; assay type: cell-based, S. aureus; conditions: MRSA NRS 186
# Procedure: (§1) The data is given in supporting information (Table S5). Before starting the experiment, a single colony was picked from MHA plate, inoculated in MHBII and incubated overnight at 37 °C with shaking for 18–24 h to get the starter culture. Antibiotic susceptibility testing was conducted according to the CLSI (Clinical & Laboratory Standards Institute) guidelines using the broth microdilution assay. 10 mg/mL stock solutions of test compounds were prepared in DMSO. Bacterial cultures were inoculated in MHBII and optical density (OD) was measured at 600 nm, followed by dilution to achieve ~10^6 CFU/mL. The compounds were tested from 64 to 0.5 mg/L in two-fold serial diluted fashion with 2.5 μL of each concentration added to well of a 96-well round bottom microtiter plate. Later, 97.5 μL of bacterial suspension was added to each well containing either test compound or appropriate controls. […] The MIC is defined as the lowest concentration of the compound at which there is absence of visible growth. For each test compound, MIC determinations were carried out independently three times using duplicate samples.
# B. subtilis 168CA = assay: Propidium iodide pore assay; assay type: cell-based, Bacillus subtilis; conditions: 3.125 µM Pt1, 25 µM Pt8; 30 and 60 min
# Procedure: Propidium iodide staining was performed as described previously. B. subtilis 168CA was grown to an OD600 of 0.3 prior to splitting of the parent culture and treatment with the different antibiotics. After 15 and 45 min, samples were stained with 13.3 µg/mL propidium iodide for 15 min (total treatment times 30 and 60 min), and washed 3 times with phosphate-buffered saline (PBS). Fluorescence signals were recorded at an excitation wavelength of 535–15 nm and an emission wavelength of 617–20 nm in a BMG Clariostar Plus plate reader.
# [1] = tested on: human red blood cells (RBC); assay: Hemolysis assay in hRBCs; assay type: cell-based; conditions: 4 hours at 20 °C
# S. aureus ATCC 29213 [2] = assay: Drug interaction study (chequerboard assay); assay type: cell-based
# Procedure: All compounds were freshly prepared for the experiment. […] Following incubation, the fractional inhibitory concentration index (FICI) was calculated with the formula FICI = […], whereby FICA = MIC of drug A in combination/MIC of drug A alone and FICB = MIC of drug B in combination/MIC of drug B alone. A drug combination is considered synergistic when ∑FICI is ≤0.5, indifferent when ∑FICI is >0.5 to 4, and antagonistic when ∑FICI is >4.
# [3] = tested on: RpoC-GFP (B. subtilis 1048); assay: Localization of RpoC-GFP (transcription reporter); assay type: cell-based, Bacillus subtilis; conditions: 3.12 µM Pt1, 25 µM Pt8; 30 and 60 min
# Procedure: B. subtilis strains were grown in LB containing appropriate inducer concentrations as specified in Table S10. After reaching an OD600 of 0.3, cultures were split and treated with antibiotics. Samples were withdrawn after 30 and 60 min of treatment, spotted on glass slides covered with 1% agarose films, and immediately imaged.
# Figure S9: Localization of RpoC-GFP (B. subtilis 1048). Cultures were treated with 3.12 µM
# (1 picture or pasted object on this page, not shown here)
# [4] = parameters: method as in PMID 34018686; conditions: cited from earlier work
# S. aureus ATCC 29213 [5] = assay: Post antibiotic effect (PAE); assay type: cell-based; conditions: for Time for 1 log10 increase in bacterial cfu count: 1 h exposure
# Procedure: Post antibiotic effect (PAE) was determined as follows. […] Following incubation, cultures were centrifuged and washed twice with pre-warmed MHBII to remove any traces of antibiotics. Finally, cells were resuspended in drug-free MHBII and incubated further at 37 °C. Samples were taken every 1 h, serially diluted, and plated on tryptic soy agar (TSA) for enumeration of CFU. […] CFU observed immediately after the removal of the drug, and C in a similarly treated drug-free control.
# A. baumanii BAA 1605 = assay: Broth microdilution MIC, A. baumannii BAA 1605; assay type: cell-based, Acinetobacter baumannii
# Procedure: as §1
# E. coli ATCC 25922 = assay: Broth microdilution MIC, E. coli ATCC 25922; assay type: cell-based
# Procedure: as §1
smiles,measurement,setting,value
C1=C\CC/C=C\CC/1.[Cl][Pt][Cl] [Pt1],DNA molecule length shift,"λ-phage DNA; 3.125 µM Pt1, 25 µM Pt8, 100 µM CisPt, 10 min",shorter fragments
same,DNA fragmentation at swapped (equimolar comparison) concentrations,"λ-phage DNA; 25 µM Pt1, 3.125 µM Pt8",stronger DNA fragmentation
same,MIC,MRSA NRS 186,0.125 – 0.25 µg/mL and 0.33–0.67 µM
same,propidium iodide (PI) uptake,B. subtilis 168CA,Neither Pt1 nor Pt8 showed increased PI uptake
same,HC50,[1],>200 µM
same,FIC B,S. aureus ATCC 29213 [2]; antibiotic in combination with Pt1 / alone,1
same,FIC (FICA+FICB),S. aureus ATCC 29213 [2]; combination with Pt1,2
same,Interference,"S. aureus ATCC 29213 [2]; combination with Pt1, synergistic ≤0.5, indifferent >0.5 to 4, antagonistic >4",no interaction
same,MIC,"S. aureus ATCC 29213 [2]; compound alone, Table S8",0.125 µg/mL
same,localization of RpoC,[3],Neither protein showed a distinct phenotype
same,antibacterial activity in human serum,[4],lost its antibacterial activity completely
same,PAE,S. aureus ATCC 29213 [5]; 1x MIC,~ 5.5 h
same,Time for 1 log10 increase in bacterial cfu count,S. aureus ATCC 29213 [5]; 1x MIC,~ 8 h
same,PAE,S. aureus ATCC 29213 [5]; 5x MIC,~ 5.5 h
same,Time for 1 log10 increase in bacterial cfu count,S. aureus ATCC 29213 [5]; 5x MIC,~ 8 h
same,PAE,S. aureus ATCC 29213 [5]; 10x MIC,~ 5.5 h
same,Time for 1 log10 increase in bacterial cfu count,S. aureus ATCC 29213 [5]; 10x MIC,~ 8 h
same,MIC,A. baumanii BAA 1605,> 64 µg/mL
same,MIC,E. coli ATCC 25922,> 64 µg/mL
